# According to patent US20050100555A1, “Homing peptides” (KING'S COLLEGE LONDON An Institute Incorporated by Royal …, priority 2001, published 2005):
# “Also recorded” adds a separate entry of the source. No end group written: not given here.
# Columns and labels:
# [1] = test system: human synovial grafts (cognate synovial MVE ligand); test: Competitive localisation to human synovial grafts of synthetic biotinylated peptide against parent 3.1 phage clone; type: in vivo; conditions: for effect on graft localisation of the 3.1 phage clone: 50, 250 and 500 μg/mouse with 3.1 phage clone
# Procedure: (§1) Selection in vivo of synovial specific phage.
# (§2) Competitive localisation to human synovial grafts of synthetic biotinylated peptide […] against the parent 3.1 phage clone. SCID mice were transplanted with human synovial tissue and injected intravenously, as describe above for the in vivo selection experiments, with 1×10^11 tpfu of 3.1 phage clone in presence or absence of increasing concentrations of the biotinylated CKSTHRDLC synthetic peptide (50, 250 and 500 μg/mouse in 200 μL dose volume) or the biotinylated CGTWSHPQC synthetic peptide control. Controls also included animals injected with 1×10^11 pfu of strep-clone-1 or biotin alone. After 15 minutes circulation time, mice were perfused and the number of phage in the transplants determined as described above. Histological analysis was performed as described below.
# [2] = test system: human microvascular endothelium in synovial grafts; test: Assessment of graft localization of biotinylated peptides (ABC-AP immunohistology); type: in vivo; conditions: for localisation of biotinylated peptide to synovial grafts (immunoreactivity): 500 μg/mouse with 3.1 phage clone, ABC-AP, Vector Red
# Procedure: as §2
# Assessment of graft localization of biotinylated peptides. The graft localisation of the biotinylated CKSTHRDLC synthetic peptide was assessed by using the alkaline phosphatase avidin biotin complex (ABC-AP) detection system (Dako, UK) and visualised by Vector Red substrate (Novacastra, UK).
# [3] = test system: human synovial grafts; test: Synovial homing of single phage clones in SCID mice transplanted with human synovium; type: in vivo; conditions: 1×10^11 pfu i.v., 15 minutes recirculation; for localization of phage clone to synovial grafts in comparison to strep-clone-1 phage control: SCID mice with human synovium grafts
# Procedure: as §1
# Confirmation of synovial homing specificity in single phage clones displaying consensus motifs. 1×10^11 pfu (200 μL saline fmal volume) of three single phage clones (1.23, 2.10 and 3.1) displaying consensus motifs or the strep-clone-1 phage control were and injected intravenously in separate animals transplanted with human synovium as described in ‘Selection in vivo ofsynovial specific phage’. The number of study and control clone phage localising to synovial grafts was determined as described in the same section.
# [4] = test system: murine kidney; test: Phage recovery from murine kidney in the competitive localisation experiment; type: in vivo, mouse; conditions: with or without study or control peptide
# Procedure: as §1, §2
# [5] = test system: human synovial grafts; conditions: 1×10^11 pfu i.v., double transplanted RA synovium and skin
# Procedure: Selection in vivo of synovial specific phage. Synovial homing phage were isolated by 3-4 cycles of enrichment in SCID mice transplanted with human tissues at 4-6 weeks of age. Four weeks post-transplantation the pep-PDL library (1×10^11 pfu in 200 μL saline final volume) was injected into the tail vein of anaesthetized animals. After 15 minutes (in vivo phage circulation time), while under deep/terminal anaesthesia (Sagatal, 5 μg/mouse, Rhone Merieux, France) the mice were perfused via the left ventricle with approximately 50-100 mL of saline to ensure phage clearance from the blood pool. Grafts and various mouse organs were then extracted and divided into two aliquots, weighed and processed as necessary for phage recovery and histological analysis. The aliquot assigned for immunohistology was embedded in Optimal Cutting Temperature compound (OCT, Miles, Calif.), snap frozen in liquid nitrogen cooled isopentane (BDH) and stored at −70° C. until analysis. The aliquot used for phage recovery was washed three times in TBS (150 mM NaCl, 50 nm Tris, pH7.4, Sigma, Poole, UK) then homogenized in 1 ml of TBS containing protease inhibitor cocktail (Sigma). […] After a 37° C. overnight incubation the peptide phage, appearing as blue plaques, were counted and the yield of phage localising to each individual tissue determined. […]
# [6] = test system: human synovium and skin grafts (OA patient); conditions: OA synovium and skin double transplants, 15 min recirculation
# Procedure: To assess whether the synovial homing properties were due to the intrinsic characteristics of the synovium or related to the disease status (e.g. RA vs OA), pooled clones recovered from the last round of in vivo selection (3rd and 4th round of the experiments described above) were tested in recirculation studies in vivo using SCID animals double transplanted with skin and human synovium from a patient with OA. As previously, equivalent amounts of strep-clone-1 phage were injected intravenously into control animals.
Substance,effect on graft localisation of the 3.1 phage clone [1],localisation of biotinylated peptide to synovial grafts (immunoreactivity) [2],localization of phage clone to synovial grafts in comparison to strep-clone-1 phage control [3],further results
"CGTWSHPQC (cysteine pairing not given here; also: biotinylated, site not given here) [reference compound]",no significant effect,no specific immunoreactivity,–,–
CKSTHDRLC [3.1],–,–,significantly greater localization,"increase of synovial graft localization over the control strep-clone-1 phage [3]: approximately 10 fold; graft localisation relative to strep-clone-1 control ([1]; phage alone, 15 minutes circulation): approximately nine times more; level of phage localisation to murine kidney [4]: only minimal ‘background’ localisation"
CTHSSATQC [1.23],–,–,significantly greater localization,–
"CKSTHDRLC (not fully specified; cysteine pairing not given here; also: biotinylated, site not given here)",dramatically inhibits in a dose dependent fashion,strongly localises in vivo to synovial grafts,–,"inhibition of graft localisation of the parent 3.1 phage clone ([1]; at maximal dose (500 μg/mouse i.v.), 15 minutes circulation): over 80%; site of peptide binding within synovial grafts (double staining with anti-human vWf-FITC) ([2]; 500 μg/mouse): specific immunoreactivity co-localising with human vasculature; also recorded: binds principally to human microvascular endothelium"
CDRLNHQFC [2.10],–,–,significantly greater localization,–
C-G-T-W-S-H-P-Q-C [strep-clone-1],–,–,–,"localisation of phage to synovial grafts, skin grafts and mouse kidney [5]: comparable low levels of localisation in all three tissues; number of phage recovered from synovial grafts versus skin grafts [6]: virtually the same"
